Measured values: patent publication US6599920B2, “Naphthalene compounds, intermediates, formulations, and methods” (Eli Lilly and Company, priority 1996, dated 2003)
Marks after values point to notes of the source that are not given here.

Legend:
ovariectomized rats = assay: Ovariectomized rat model of postmenopausal hyperlipidemia (serum cholesterol, uterine weight, uterine eosinophil peroxidase); format: in vivo
Experimental: Experimental models of postmenopausal hyperlipidemia are known in the art. […] to this invention is the ovariectomized rat model which is detailed in U.S. Pat. No. 5,464,845. Data presented in Table 1 show comparative results among ovariectomized rats, rats treated with 17-α-ethynyl estradiol (EE2), and rats treated with certain compounds of this invention. […] This uterine response to estrogen is well recognized in the art. As expressed in the data below, estrogenicity also was assessed by evaluating the response of eosinophil infiltration into the uterus. […] The data presented in Table 1 reflect the response per treatment group. In accordance with the above procedures, compounds of the present invention and ethynyl estradiol (EE2) in 20% hydroxypropyl β-cyclodextrin are orally administered to test animals.

[1] = test system: MCF-7 breast adenocarcinoma cells; assay: MCF-7 Proliferation Assay; format: cell-based; conditions: Homo sapiens, MCF7; MCF-7 cells, 48 hours with drug; read-out: IC50, inhibition of tumor cell growth (tritiated thymidine uptake)
Experimental: MCF-7 breast adenocarcinoma cells (ATCC HTB 22) were maintained in MEM (minimal essential medium, phenol red-free, Sigma, St. Louis, Mo.) supplimented with 10% fetal bovine serum (FBS) (V/V), L-glutamine (2 mM), sodium pyruvate (1 mM), HEPES {(N-[2-hydroxyethyl]piperazine-N′-[2-ethanesulfonic acid]10 mm}, non-essential amino acids and bovine insulin (1 ug/mL) (maintenance medium). Ten days prior to assay, MCF-7 cells were switched to maintenance medium supplemented with 10% dextran coated charcoal stripped fetal bovine serum (DCC-FBS) assay medium) in place of 10% FBS to deplete internal stores of steroids. MCF-7 cells were removed from maintenance flasks using cell dissociation medium (Ca++/Mg++ free HBSS (phenol red-free) supplemented with 10 mM HEPES and 2 mM EDTA). Cells were washed twice with assay medium and adjusted to 80,000 cells/mL. Approximately […] (8,000 cells) were added to flat-bottom microculture wells (Costar 3596) and incubated at 37° C. in a 5% CO2 humidified incubator for 48 hours to allow for cell adherence and equilibration after transfer. Serial dilutions of drugs or DMSO as a diluent control were prepared in assay medium and […] to triplicate microcultures […]. […] Samples were counted by liquid scintillation using a Wallac BetaPlace β counter. […]

[2] = 0.1 mg/kg PO, in 20% hydroxypropyl β-cyclodextrin

| SMILES | Serum cholesterol (% Dec.), decrease versus ovariectomized controls (ovariectomized rats; 0.1 mg/kg PO) | Uterine EPO (Vmax), eosinophil peroxidase (ovariectomized rats; 0.1 mg/kg PO) | Uterine Wt. (% Inc.), uterine weight % increase versus the ovariectomized controls (ovariectomized rats; [2]) | Effect on serum cholesterol (ovariectomized rats; oral, compared to ovariectomized animals) | Effect on uterine weight (ovariectomized rats; oral, compared to ovariectomized animals or EE2) | Eosinophil infiltration into the uterus (ovariectomized rats; oral, stromal layer of uteri) | Serum cholesterol (% Dec.), decrease versus ovariectomized controls (ovariectomized rats; 1 mg/kg PO) | Uterine EPO (Vmax), eosinophil peroxidase (ovariectomized rats; 1 mg/kg PO) | Uterine Wt. (% Inc.), uterine weight % increase versus the ovariectomized controls (ovariectomized rats; 1 mg/kg PO) | Serum cholesterol (% Dec.), decrease versus ovariectomized controls (ovariectomized rats; 10 mg/kg PO) | Uterine EPO (Vmax), eosinophil peroxidase (ovariectomized rats; 10 mg/kg PO) | Uterine Wt. (% Inc.), uterine weight % increase versus the ovariectomized controls (ovariectomized rats; 10 mg/kg PO) | IC50 [1] [nM] |
| --- | --- | --- | --- | --- | --- | --- | --- | --- | --- | --- | --- | --- | --- |
| C#C[C@]1(O)CC[C@H]2[C@@H]3CCc4cc(O)ccc4[C@H]3CC[C@@]21C [EE2, 17-α-Ethynyl-estradiol, reference compound] | 87.5* % | 133.8* | 128.0* % | caused a decrease in serum cholesterol | substantially greater than the uterine weight of the ovariectomized animals | substantial and expected increase in eosinophil infiltration |  |  |  |  |  |  |  |
| Cl.Oc1cccc(-c2ccc3cc(O)ccc3c2Cc2ccc(OCCN3CCCCC3)cc2)c1 [Ex. 2, [2-(3-Hydroxyphenyl)-6-hydroxynaphthalen-1-yl][4-[2-(1-piperidinyl)ethoxy]phenyl]methane Hydrochloride] | 6.6% | 4.8 | 37.6* % |  |  |  | 28.6% | 4.8 | 44.7* % | 46.6* % | 4.8 | 28.1* % |  |
| COc1cccc(-c2ccc3cc(OC)ccc3c2Cc2ccc(OCCN3CCCCC3)cc2)c1.Cl [Ex. 1, [2-(3-Methoxyphenyl)-6-methoxynaphthalen-1-yl][4-[2-(1-piperidinyl)ethoxy]phenyl]methane Hydrochloride] | 68.4* % | 7.5 | 30.9* % |  |  |  | 74.1* % | 5.4 | 31.6* % | 65.0* % | 6.0 | 37.2* % | 0.1 |
